The text below walks through data of US6559281B1, “Non-naturally occurring synthetic lytic peptides” (priority 1993, dated 2003).

In one assay the test system is Staphylococcus aureus. Nature of the assay: In vitro lysis of pathogenic bacteria (lytic peptide bioassay, colony count of survivors). The class given is cell-based. The settings on record: clinical isolate, 37° C. for one hour; for # of Survivors: minus peptide control 50,000; for % of Control: survivors. As to the method: (§1) In this test, antibiotic resistant clinical isolates of Pseudomonas aeruginosa and Staphylococcus aureus were obtained. The lytic peptide bioassay was performed as described below.
(§2) A flask containing 49 ml of nutrient broth was inoculated with 1 ml of an overnight culture of the test bacteria. The culture was allowed to grow to mid-log phase at 37° C. with shaking (approximately 4 hours). When the cells reached the correct density, the cells were transferred to a sterile tube and centrifuged for 10 minutes at 3000 rpm. The pellet was resuspended in 3 ml of phosphate buffer and centrifuged for 10 minutes at 3000 rpm. The pellet was resuspended once again in sufficient (but measured) volume to calculate the absorbance of the suspension at 600 nm. Using the resulting absorbance and a previously constructed growth curve, the required dilution to achieve a concentration of 10^6 cells/ml was determined.
(§3) The test culture tubes for the bioassay contained 800 μl of phosphate buffer, pH 7.0, 100 μl of cells at 10^6 cells/ml and 100 μl of peptide solution (10 μM to 1 mM). The final concentration of peptide in the assay was from 1 μM to 100 μM. A reaction system minus peptide was included as a control. The tubes were incubated at 37° C. for one hour.
(§4) After the incubation period two 1:10 serial dilutions in phosphate buffer were made for each culture(three 1:10 serial dilutions for the control culture). […] of each dilution was spread on a nutrient agar plate, in duplicate and incubated overnight at 37° C. The following day, the number of colonies on the control plates was counted to determine the starting number of cells in the assay tubes. The number of cells surviving the assay in the presence of peptide was also counted.

Another assay concerns Pseudomonas aeruginosa. The class given is cell-based. To be noted: clinical isolate, 37° C. for one hour; for # of Survivors: minus peptide control 100,000; for % of Control: survivors. As to the method:
as §1, §2, §3, §4

Where two headings read alike, the source gives them in different places.

As for “Ala Val Lys Arg Val Gly Arg Arg Leu Lys Lys Leu Ala Arg Lys Iso Ala Arg Leu Gly Val Ala Phe [SEQ ID NO. 14]”, the “# of Survivors” value with Staphylococcus aureus (peptide 1 μM) is given as 50,000; in the assay with Staphylococcus aureus (peptide 10 μM) it was 2,299; in the assay with Pseudomonas aeruginosa (peptide 1 μM) it was 100,000; in the assay with Pseudomonas aeruginosa (peptide 10 μM) it was 2. Also, the “% of Control” value worked out at 100% with Staphylococcus aureus (peptide 1 μM), 4.6% in the assay with Staphylococcus aureus (peptide 10 μM), 100% in the assay with Pseudomonas aeruginosa (peptide 1 μM) and 0.002% in the assay with Pseudomonas aeruginosa (peptide 10 μM).
